According to patent US11453847B2, “Laundry sheet” (priority 2018, dated 2022):

Experiments:
Algal = conditions: in vivo
Protocol: (§1) (4) An ecotoxicity test was performed on various alkyl polyglucosides.

Water flea = conditions: in vivo
Protocol: as §1

Substance | Algal test EC50 (72 h) (Algal) [µg/mL] | Water flea test EC50 (49 h) (Water flea) [µg/mL]
alkyl ethoxylate [AEO] | 1.2 | 1.9
fatty acid methyl ester ethoxylate [FMEE] | >100 | 79.2
